# Reference: article PMC6882465, “Towards discovery of new leishmanicidal scaffolds able to inhibit Leishmania GSK-3” (Journal of Enzyme Inhibition and Medicinal Chemistry, 2019)
# Target: LdGSK-3 (Leishmania donovani, UniProt A6N857)
# Experiment: Inhibition of LdGSK-3 with Kinase Glo
# Type: biochemical
# Conditions: Table 1; read-out: LdGSK-3 IC50
# Description: Assessment of inhibition of LdGSK-3 with Kinase Glo^TM
# The reaction was allowed to proceed for 30 min at 30 °C, then it was incubated at room temperature for another 10 min after addition of Kinase Glo reagents (Promega, Ref. V6712). ATP consumption by LdGSK-3 was measured indirectly through end-point luminescence measurement of each well in a Varioskan Flash microplate reader (Thermo).
# LdGSK-3, sequence (A6N857 entry or part of it): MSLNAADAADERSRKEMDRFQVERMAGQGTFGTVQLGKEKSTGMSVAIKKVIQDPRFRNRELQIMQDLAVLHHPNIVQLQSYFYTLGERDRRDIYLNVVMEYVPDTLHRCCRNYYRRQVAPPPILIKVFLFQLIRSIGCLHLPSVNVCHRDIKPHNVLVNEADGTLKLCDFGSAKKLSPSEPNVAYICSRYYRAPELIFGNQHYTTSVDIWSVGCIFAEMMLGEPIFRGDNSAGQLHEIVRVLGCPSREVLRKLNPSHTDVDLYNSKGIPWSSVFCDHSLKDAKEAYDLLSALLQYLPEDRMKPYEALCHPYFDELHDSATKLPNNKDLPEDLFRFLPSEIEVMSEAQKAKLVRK
row,IC50 [nM],Compound
1,2400,"O=C1Nc2ccc(S(=O)(=O)O)cc2C1=C1Nc2ccccc2C1=NO [Indirubin-3’-monoxime-5-sulphonic acid, reference compound]"

# Same assay, conditions: Table S2; 10 µM
row,Compound,% inhibition @ 10µM (initial screening on LdGSK3) [%]
1,N#Cc1cccc(CNc2ccc(-c3cnn(CC4CC4)c(=O)c3C#N)cc2)c1 [Compound 63],-3.20±0.80
2,COc1ccc(NS(=O)(=O)c2ccc(S(=O)(=O)N(C)C3CCCCC3)cc2)c2ncccc12 [Compound 135],6.85±1.55
3,Nc1nc(-c2ccccc2)cc(-c2nc3ncccc3[nH]2)n1 [Compound 169],32.90±2.70
4,CCN(Cc1nc2ccc(C(=O)N3CCN(c4ncccn4)CC3)cc2[nH]1)C1CCCc2cccnc21 (stereo not drawn) [Compound 182],9.60±1.20
5,O=C(Nc1ccc(S(=O)(=O)N2CCCC2)cc1)c1ccc([N+](=O)[O-])s1 [Compound 59],16.15±4.10
6,Cc1ccc(NC(=O)c2ccc([N+](=O)[O-])s2)cc1S(=O)(=O)N1CCOCC1 [Compound 97],6.15±1.05
7,COc1ccc(-c2cnc(NC(=O)c3cc(-c4ccccn4)n[nH]3)n2C)cc1 [Compound 90],6.40±2.45
8,COc1cc(Cl)c(C)cc1NC(=O)c1ccc([N+](=O)[O-])s1 [Compound 176],8.55±1.75
9,COc1ccc(CNc2cc(C3CC3)nc(-c3nccn3C)n2)cc1.O=C(O)C(F)(F)F [Compound 43],15.30±1.60
10,CN(C)CCN(C)Cc1ccc(Cl)cc1NS(=O)(=O)c1ccc(Cl)c(Cl)c1 [Compound 204],8.00±4.85
11,CCn1c(NC(=O)Cc2ccc(F)cc2)nc2ccccc21 [Compound 138],13.00±3.55
12,CN(C)c1ccc(N)cc1CN(CC1CCCO1)S(C)(=O)=O (stereo not drawn) [Compound 136],13.95±3.25
13,Nc1nc(-c2ccccn2)nc(-n2nc(-c3ccccc3)cc2N)n1.O=C(O)C(F)(F)F.O=C(O)C(F)(F)F.O=C(O)C(F)(F)F.O=C(O)C(F)(F)F.O=C(O)C(F)(F)F.O=C(O)C(F)(F)F.O=C(O)C(F)(F)F.O=C(O)C(F)(F)F [Compound 177],17.70±1.20
14,COc1cc(OC)cc(C(NS(=O)(=O)c2ccc(Cl)c(C(F)(F)F)c2)c2nccn2C)c1 (stereo not drawn) [Compound 139],15.95±1.70
15,NC(=O)c1ccsc1NC(=O)c1ccc([N+](=O)[O-])s1 [Compound 117],6.20±1.15
16,CC(=O)Nc1ccc(-c2csc(NC(=O)c3ccc([N+](=O)[O-])s3)n2)cc1 [Compound 141],8.55±0.55
17,O=C(Nc1cccc(Cl)c1)Nc1ccc([N+](=O)[O-])cc1Cl [Compound 89],4.80±2.05
18,Cc1cccc(Nc2nc(-c3ccccn3)cs2)n1 [Compound 147],13.40±2.35
19,Cc1ccccc1CNC(=O)CN(Cc1ccccn1)Cc1ccccn1.O=C(O)C(F)(F)F [Compound 203],4.90±2.30
20,COc1ccc2ncc(Cl)c(CCN3CC[C@H](NCc4cc5c(cn4)OCS5)[C@@H](O)C3)c2n1 [Compound 183],14.80±2.25
21,N#Cc1cccc(Nc2nccc(N3CCC(NS(=O)(=O)c4cccc(C#N)c4)CC3)n2)c1.O=C(O)C(F)(F)F [Compound 100],37.05±1.50
22,COCc1cnc2c(c1SCc1c(F)cccc1Cl)c(=O)n(C)c(=O)n2C [Compound 148],9.60±3.10
23,COCc1cc(Nc2ccccc2)nc(-c2ccccn2)n1 [Compound 35],2.90±4.05

row,Compound,% inhibition @ 10µM (initial screening on LdGSK3) [%]
1,Oc1c(-c2n[nH]c(Cc3ccc(F)cc3)n2)ncc2cccnc12 [Compound 102],4.05±3.10
2,Cc1cc(C)cc(NS(=O)(=O)c2cc(-c3cc(C)[nH]n3)ccc2C)c1 [Compound 51],5.95±1.25
3,Cc1nc2c(-c3ncn[nH]3)cc(NC(=O)Cc3ccccc3)cn2c1C.O=CO [Compound 37],5.90±4.55
4,N#CN1CC[C@@H](NC(=O)Nc2ccccc2Oc2ccccc2)C1 [Compound 72],7.40±4.30
5,O=C(Nc1nc2ccccc2[nH]1)c1ccc2nc[nH]c2c1 [Compound 53],-1.60±1.50
6,c1ccc(-c2nc(NC3CCCC3)c3ccccc3n2)nc1 [Compound 92],-0.55±1.25
7,O=C(c1cccc(Nc2ncc(-c3ccc4c(c3)OCO4)cn2)c1)N1CCOCC1 [Compound 189],12.20±0.75
8,N#Cc1ccccc1S(=O)(=O)N1CCN(C(=O)CNC(=O)c2ccc3c(c2)OCO3)CC1 [Compound 82],1.90±2.60
9,COc1ccc(C2=NCC(CSc3nnc(-c4ccc5c(c4)OCO5)o3)S2)cc1 (stereo not drawn) [Compound 125],10.60±1.00
10,COc1ccccc1C(=O)Nc1nnc(-c2ccc3c(c2)OCO3)s1 [Compound 162],9.20±3.30
11,CCOc1ccccc1C(=O)Nc1nnc(-c2ccc3c(c2)OCO3)s1 [Compound 191],12.20±2.70
12,C=CCN(Cc1cccs1)C(=O)CSc1nnc(-c2ccc3c(c2)OCO3)o1 [Compound 206],10.00±0.90
13,COc1ccc(OC)c2c(=O)c(Cc3ccccc3)c(C)[nH]c12 [Compound 110],-0.10±5.35
14,Cc1cc2cc(CNc3ccc4c(c3)OCO4)c(=O)n(CCO)c2cc1C [Compound 188],20.90±4.45
15,O=C(Nc1nc(-c2ccc(F)cc2)cs1)c1ccc([N+](=O)[O-])s1 [Compound 132],8.15±0.95
16,Cn1nc(C(=O)N2CCc3ccccc32)c2c1CCS(=O)(=O)C2 [Compound 30],5.20±1.90
17,CCS(=O)(=O)Nc1ccc(C2=NN(C(=O)c3cccs3)C(c3ccccc3OC)C2)cc1 (stereo not drawn) [Compound 108],5.15±1.90
18,O=C1CN(C(=O)c2cccc(Nc3ncc(-c4ccc5c(c4)OCO5)cn3)c2)CCN1 [Compound 67],5.65±3.60
19,CCCCN(C(=O)c1ccc(NC(=O)C(C)C)cc1)c1ccccc1 [Compound 168],14.15±2.15
20,CCC(=O)N1N=C(c2ccc3c(c2)CCCC3)Sc2c1ncn2C(=O)CC [Compound 127],9.65±3.70
21,CN(C)S(=O)(=O)c1cccc(CSc2nnc(-c3ccc4c(c3)OCO4)o2)c1 [Compound 167],38.45±1.35
22,COc1ccc2ncc(F)c(CCN3CC[C@@H](NC(=O)c4cc5c(s4)CCC5)[C@@H](O)C3)c2n1.Cl [Compound 173],8.60±2.90

# The remaining lines, values ahead:
row,% inhibition @ 10µM (initial screening on LdGSK3) [%],Compound
1,7.10±1.40,CCNc1cc(-c2ccccn2)nc(Nc2ccccc2)n1 [Compound 38]
2,8.15±3.40,Nc1nc(-c2ccccn2)nc(N)c1Cc1c(F)cccc1Cl [Compound 190]
3,22.80±3.55,CCc1ccc2nc(NC(=O)c3cc(N4CCOCC4)ccn3)sc2c1 [Compound 118]
4,18.20±7.00,O=C(c1cccc(Nc2ncc(-c3ccc4c(c3)OCO4)cn2)c1)N1CCSC1 [Compound 140]
5,2.65±4.15,O=C(CN(Cc1ccccn1)Cc1ccccn1)NCc1ccc2c(c1)OCO2.O=C(O)C(F)(F)F [Compound 193]
6,13.20±1.65,COc1ccc(-c2cc(C)no2)cc1S(=O)(=O)Nc1ccc(C)c(C)c1 [Compound 170]
7,0.90±4.25,COc1ccc(C2C3CCCCC3(O)CCN2CC(=O)Nc2ccc(Cl)cc2Cl)cc1 (stereo not drawn) [Compound 194]
8,11.85±0.55,CCN(CC)c1nc(N(C)C)nc2c1CN(Cc1ccccc1)CC2 [Compound 146]
9,6.40±1.30,Cc1ccc(Nc2nc(N)nc(CNC(c3nc4ccccc4[nH]3)C(C)C)n2)cc1 (stereo not drawn) [Compound 79]
10,7.15±1.10,Cc1nc(C(=O)Nc2ccc3c(c2)OCO3)nn1-c1ccc(F)cc1 [Compound 198]
11,6.00±1.50,COCCn1c(-c2ccccc2)cnc1NCc1ccccc1OC.O=C(O)C(=O)O [Compound 174]
12,17.10±1.10,Cl.c1ccc(CNc2cccc3ccncc23)cc1 [Compound 126]
13,6.55±2.70,c1ccc2sc(Nc3nc4ncccc4[nH]3)nc2c1 [Compound 86]
14,0.90±0.90,Oc1c(-c2n[nH]c(CCc3ccccc3)n2)ncc2cccnc12 [Compound 66]
15,14.00±2.25,Cc1nc(-c2ccc3c(c2)OCO3)sc1C(=O)NCc1ccc2c(c1)OCO2 [Compound 205]
16,13.55±4.65,COc1ccc(CNc2nsc3ccccc23)cc1OC [Compound 150]
17,-0.75±1.55,Cc1nn(-c2nc(N)nc(-c3ccccn3)n2)c(C)c1Cc1ccccc1 [Compound 104]
18,7.95±2.05,COc1ccc(-c2csc(NC(=O)c3ccc([N+](=O)[O-])s3)n2)cc1OC [Compound 142]
19,3.55±2.20,COc1cnc2ccc(=O)n(CCN3CCC(NC/C=C/c4cc(F)ccc4F)CC3)c2c1 [Compound 84]
20,0.50±2.95,COc1ccc(Oc2ccc(C(C)N(C)c3ncc4c(N)nc(N)nc4n3)cc2)cc1 (stereo not drawn) [Compound 56]
21,8.90±6.75,Cn1ccnc1-c1nc(NCc2ccccc2Cl)cc(C2CC2)n1.O=C(O)C(F)(F)F [Compound 129]
22,16.10±4.80,Cc1nc(N2CC(C)OC(C)C2)sc1C(=O)Nc1ccc2c(c1)OCO2 (stereo not drawn) [Compound 209]
23,10.00±0.75,Cc1ccc2onc(Nc3ccnc(Nc4cccc(S(C)(=O)=O)c4)n3)c2c1.O=C(O)C(F)(F)F [Compound 74]
